Patent publication EP4656642A1, “ESTROGEN RECEPTOR PROTEOLYSIS TARGETING CHIMERA COMPOUND AND USE THEREOF” (GAN & LEE PHARM CO., LTD, priority 2023, dated 2024)

Legend:
Format in all cases: cell-based
[1] = tested on: T-47D cells; assay: Inhibition of cell proliferation in T-47D cells (CCK-8, 6 days); conditions: 6 days of treatment
In short: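 T-47D cells at 3,000 cells/well in RPMI 1640 with 10% FBS were exposed to a concentration series of PROTAC compounds for 6 days at 37 °C, 5% CO2. Viability was read by CCK-8, and IC50 values were derived for proliferation inhibition.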

[2] = tested on: MCF-7 cells; assay: Inhibition of cell proliferation of MCF-7 cells (CCK-8, 9 days)
In short: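 MCF-7 cells seeded at 800 cells/well in DMEM with 10% FBS, exposed to a range of compound concentrations for 9 days at 37°C, 5% CO2. Viability read by CCK-8; IC50 derived for proliferation inhibition.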

[3] = molecular target: T1, ERα (Homo sapiens, UniProt P03372); assay: Degradation of ERα in T-47D cells (immunoblotting, 4 h); set-up: host or cells: T-47D
T1 sequence (P03372 1-595): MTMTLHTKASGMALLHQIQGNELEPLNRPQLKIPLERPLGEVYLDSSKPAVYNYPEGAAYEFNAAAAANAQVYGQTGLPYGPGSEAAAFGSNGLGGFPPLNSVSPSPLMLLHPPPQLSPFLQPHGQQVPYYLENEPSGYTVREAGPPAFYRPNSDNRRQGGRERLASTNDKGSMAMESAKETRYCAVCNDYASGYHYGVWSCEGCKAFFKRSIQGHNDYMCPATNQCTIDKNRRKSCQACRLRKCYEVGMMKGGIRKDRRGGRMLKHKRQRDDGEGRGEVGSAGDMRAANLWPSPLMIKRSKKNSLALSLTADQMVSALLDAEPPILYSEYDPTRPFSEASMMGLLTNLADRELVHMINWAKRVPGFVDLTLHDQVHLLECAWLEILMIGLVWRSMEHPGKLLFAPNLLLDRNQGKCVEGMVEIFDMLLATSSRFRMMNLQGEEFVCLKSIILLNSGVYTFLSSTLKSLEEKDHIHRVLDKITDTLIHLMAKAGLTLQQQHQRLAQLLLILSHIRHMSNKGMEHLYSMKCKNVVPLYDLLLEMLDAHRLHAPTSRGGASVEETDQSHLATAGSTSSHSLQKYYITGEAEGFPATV
In short: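 T-47D cells were treated with compound (final 0.15-1000 nM, DMSO) for 4 h at 37°C, 5% CO2. Cells were lysed in RIPA buffer with protease inhibitor, and ERα protein in the cleared lysate was measured by immunoblotting.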

[4] = molecular target: T1, ERα; assay: Degradation of ERα in MCF-7 cells (immunoblotting, 4 h)
In short: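 MCF-7 cells treated 4 h at 37°C with compounds at 0.15-1000nM final. ERα in lysates measured by immunoblot, with band grayscale normalized to an internal reference protein. Degradation rate calculated against DMSO-treated control.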

[5] = treated for 9 days, CCK-8 kit (Table 6)

IC50 ([1]; Table 3) [nM] | IC50 [2, 5] [nM] | Degradation rate (%) of ERα in T-47D cells ([3]; 1nM compound) [%] | Degradation rate (%) of ERα in T-47D cells ([3]; 10nM compound) [%] | Degradation rate (%) of ERα in MCF-7 cells ([4]; 1nM compound) [%] | Degradation rate (%) of ERα in MCF-7 cells ([4]; 10nM compound) [%] | IC50 ([1]; Table 2) [nM] | IC50 ([2]; 9 days of treatment, CCK-8, Table 5) [nM] | SMILES
0.99 | 2730 | 60 | 78 | 29 | 40 | – | – | O=C1CCC(N2Cc3cc4c(cc3C2=O)OC2(CC4)CN(C(=O)[C@H]3CC[C@H](CN4CCN(c5ccc([C@@H]6c7ccc(O)cc7CC[C@@H]6c6ccccc6)cc5)CC4)CC3)C2)C(=O)N1 (stereo partly drawn) [C8]
1.3 | 26600 | 38 | 73 | 7 | 43 | – | – | O=C1CCC(N2Cc3c(ccc4c3OCC43CCN(CC4(F)CCN(C(=O)C5CCN(c6ccc([C@@H]7c8ccc(O)cc8CC[C@@H]7c7ccccc7)cc6)CC5)CC4)CC3)C2=O)C(=O)N1 (stereo partly drawn) [A105]
1.41 | 10.6 | 63 | 79 | 55 | 64 | – | – | O=C1CCC(N2Cc3c(ccc4c3OCC43CCN(C(=O)C4CCN(C5CCN(c6ccc([C@@H]7c8ccc(O)cc8CC[C@@H]7c7ccccc7)cc6)CC5)CC4)CC3)C2=O)C(=O)N1 (stereo partly drawn) [K7]
1.34 | 11.6 | 48 | 66 | 36 | 66 | – | – | O=C1CCC(N2Cc3ccc4c(c3C2=O)OCC42CCN(C(=O)CN3CCC4(CCN(c5ccc([C@@H]6c7ccc(O)cc7CC[C@@H]6c6ccccc6)cc5)CC4)C3)CC2)C(=O)N1 (stereo partly drawn) [A92]
5.34 | 48.6 | 21 | 56 | 32 | 63 | – | – | CC1CN(C2CCN(c3ccc([C@@H]4c5ccc(O)cc5CC[C@@H]4c4ccccc4)cc3)CC2)CCC1N1CCC2(CC1)COc1c2ccc2c1CN(C1CCC(=O)NC1=O)C2=O (stereo partly drawn) [K19]
1.8 | 151 | 39 | 55 | 27 | 21 | – | – | O=C1CCC(N2Cc3c(ccc4c3OCC43CCN(CC(=O)N4CCC5(CCN(c6ccc([C@@H]7c8ccc(O)cc8CC[C@@H]7c7ccccc7)cc6)C5)C4)CC3)C2=O)C(=O)N1 (stereo partly drawn) [H19]
– | > 100 | – | 19 | – | -6 | 1000 | – | O=C1CCC(N2C(=O)c3cc4c(cc3C2=O)OC2(CC4)CN(C3CCC4(CC3)CN(c3ccc(C5c6ccc(O)cc6CCC5c5ccccc5)cc3)C4)C2)C(=O)N1 (stereo not drawn) [B7]
1.85 | 10.5 | 26 | 71 | 31 | 69 | – | – | O=C1CCC(N2Cc3ccc4c(c3C2=O)OCC42CCN(C3CCN(C(=O)C4(F)CCN(c5ccc([C@@H]6c7ccc(O)cc7CC[C@@H]6c6ccccc6)cc5)CC4)CC3F)CC2)C(=O)N1 (stereo partly drawn) [A93]
1.29 | 27100 | 59 | 65 | 28 | 33 | – | – | O=C1CCC(N2Cc3c(ccc4c3OCC43CCN(C(=O)c4ccc(CN5CCN(c6ccc([C@@H]7c8ccc(O)cc8CC[C@@H]7c7ccccc7)cc6)CC5)nc4)CC3)C2=O)C(=O)N1 (stereo partly drawn) [B47]
41 | 62 | 7 | 26 | -2 | -8 | – | – | O=C1CCC(N2C(=O)c3cc4c(cc3C2=O)OC2(CC4)CCN(CC3CCC4(CC3)CCN(c3ccc([C@@H]5c6ccc(O)cc6CC[C@@H]5c5ccccc5)cc3)CC4)CC2)C(=O)N1 (stereo partly drawn) [A43]
4.65 | 800 | 36 | 78 | 11 | 46 | – | – | O=C1CCC(N2C(=O)c3ccc4c(c3C2=O)OCC42CCN(C3CCN(C(=O)C4CCN(c5ccc([C@@H]6c7ccc(O)cc7CC[C@@H]6c6ccccc6)cc5)CC4)CC3)CC2)C(=O)N1 (stereo partly drawn) [H27]
3 | 37 | 5 | 46 | 3 | 23 | 6.6 | 40 | O=C1CCC(N2Cc3cc4c(cc3C2=O)CCC2(CN(C3CCC5(CC3)CN(c3ccc([C@@H]6c7ccc(O)cc7CC[C@@H]6c6ccccc6)cc3)C5)C2)O4)C(=O)N1 (stereo partly drawn) [B10]
0.84 | 2.27 | 77 | 84 | 65 | 73 | – | – | O=C1CCC(N2Cc3c(ccc4c3OCC43CCN(CC4CCN(C(=O)C5CCN(c6ccc([C@@H]7c8ccc(O)cc8CC[C@@H]7c7ccccc7)cc6)CC5)CC4)CC3)C2=O)C(=O)N1 (stereo partly drawn) [A100]
1.1 | 1940 | 68 | 86 | 60 | 53 | – | – | CCN(CC(=O)N1CCC2(CC1)COc1c2ccc2c1CN(C1CCC(=O)NC1=O)C2=O)CC1CCN(c2ccc([C@@H]3c4ccc(O)cc4CC[C@@H]3c3ccccc3)cc2)CC1 (stereo partly drawn) [J12]
1 | 45.3 | 64 | 68 | 54 | 61 | – | – | C[C@@H]1CN(C(=O)C2CCN(c3cc(F)c(C4c5ccc6[nH]ncc6c5C[C@@H](C)N4CC(F)F)c(F)c3)CC2)CCC1N1CCC2(CC1)COc1c2ccc2c1CN(C1CCC(=O)NC1=O)C2=O (stereo partly drawn) [B40]
1.18 | 66.8 | 65 | 72 | 57 | 54 | – | – | CC(C(=O)N1CCC2(CC1)COc1c2ccc2c1CN(C1CCC(=O)NC1=O)C2=O)N1CCC2(CCN(c3ccc([C@@H]4c5ccc(O)cc5CC[C@@H]4c4ccccc4)cc3)CC2)C1 (stereo partly drawn) [A88]
4.16 | 4080 | 24 | 53 | 11 | 27 | – | – | O=C1CCC(N2Cc3cc4c(cc3C2=O)CCC2(CN(C(=O)C3CCN(c5ccc([C@@H]6c7ccc(O)cc7CC[C@@H]6c6ccccc6)cc5)CC3)C2)O4)C(=O)N1 (stereo partly drawn) [A50]
5.78 | 0.115 | 37 | 74 | -1 | 62 | – | – | C[C@@H]1C[C@H](N2CCC3(CC2)COc2c3ccc3c2CN(C2CCC(=O)NC2=O)C3=O)CCN1C1CC2(CCN(c3ccc([C@@H]4c5ccc(O)cc5CC[C@@H]4c4ccccc4)cc3)CC2)C1 (stereo partly drawn) [H30]
4.21 | 25400 | 33 | 71 | 8 | 46 | – | – | O=C1CCC(N2Cc3c(ccc4c3OCC43CCN(C4CC5(C4)CC4(CCN(c6ccc([C@@H]7c8ccc(O)cc8CC[C@@H]7c7ccccc7)cc6)CC4)C5)CC3)C2=O)C(=O)N1 (stereo partly drawn) [G6]

SMILES | IC50 ([1]; Table 3) [nM] | IC50 [2, 5] [nM] | Degradation rate (%) of ERα in T-47D cells ([3]; 1nM compound) [%] | Degradation rate (%) of ERα in T-47D cells ([3]; 10nM compound) [%] | Degradation rate (%) of ERα in MCF-7 cells ([4]; 1nM compound) [%] | Degradation rate (%) of ERα in MCF-7 cells ([4]; 10nM compound) [%] | IC50 ([1]; Table 2) [nM] | IC50 ([2]; 9 days of treatment, CCK-8, Table 5) [nM]
O=C1CCC(N2Cc3cc4c(cc3C2=O)CCC2(CN(C(=O)C3CCC5(CC3)CN(c3ccc([C@@H]6c7ccc(O)cc7CC[C@@H]6c6ccccc6)cc3)C5)C2)O4)C(=O)N1 (stereo partly drawn) [A46] | 10.6 | 1250 | 7 | 33 | -22 | -26 | – | –
